Data: PMC4434572, “Identification of novel drugs to target dormant micrometastases” (BMC Cancer, 2015)
Read-outs that look alike come from different tables or passages of the source.

System: cancer cells on SISgel or plastic
Assay: Activity of leads and analogs on cancer cells grown on plastic vs SISgel (cell line not stated)
Format: cell-based
Settings: for SR: ratio IC50-p/IC50-S; for Hit: YES/NO
Description: The NCI library is no longer available in the form used here, but how it was constructed is described (http://dtp.nci.nih.gov/branches/dscb/diversity_explanation.html). The ChemBridge library is a subset (Set Code NM1024) of the full 50,000 compound library (http://www.chembridge.com/screening_libraries/diversity_libraries/). Compounds were diluted to 100 μM before use. SISgel was prepared as described previously from powdered porcine small intestine submucosa obtained from Cook Biotech (W. Lafayette, IN). It is a natural product that is used extensively in tissue engineering as a bioscaffold. J82 bladder cancer cells and other cell lines were obtained from the ATCC (Bethesda, MD). […] Efficacy in vitro was assessed by plating 30,000 cells in 50 μL of high glucose DMEM with penicillin-streptomycin and 10 % fetal calf serum on SISgel in a 96-well plate containing 50 μL of gelled SISgel per well. Cells were allowed to attach and assume the SISgel phenotype for 48 h. A matching plate without SISgel was prepared 24 h later by pipetting 3,000 cells in 100 μL of high glucose DMEM with penicillin-streptomycin and 10 % fetal calf serum into each well of 96 well plate. The cells were allowed to attach and grow for 24 h. […] The cells were exposed to drug in fresh medium for 48 h, at which time the cell number was determined using the CFDA-AM cellular esterase proliferation assay (cat. #C1354, Life Technologies). For screening the results are reported as the ratio of cell count of cells on the plastic surface to the cell count on SISgel. An initial difference of 1.5 fold identified potential hits. All potential hits were confirmed in triplicate. […] Data were analyzed using nonlinear regression to a sigmoid curve with Prism 4 (GraphPad Software, Inc., LaJolla, CA). […]

[1] = cells on SISgel, read-out: IC50-S
[2] = cells on plastic, read-out: IC50-p

IC50 [1]	IC50 [2]	SMILES	SR	IC50 (read-out: IC50-S)	IC50 (read-out: IC50-p)	Hit
40 µM	71 µM	O=[N+]([O-])c1ccc(N=Nc2c(S(=O)(=O)[O-])cc3cc(S(=O)(=O)[O-])cc(O)c3c2O)cc1.[Na+].[Na+] [Chromotrope 2B]	1.8	–	–	YES
94 µM	92 µM	O=S(=O)([O-])c1cc(O)c2c(O)c(N=Nc3ccccc3)c(S(=O)(=O)[O-])cc2c1.[Na+].[Na+] [Chromotrope 2R]	0.98	–	–	–
34 µM	71 µM	CC(=O)Nc1ccc(N=Nc2c(S(=O)(=O)[O-])cc3cc(S(=O)(=O)[O-])cc(O)c3c2O)cc1.[Na+].[Na+] [Chromotrope 6B]	2.1	–	–	YES
50 µM	90 µM	O=S(=O)(O)c1ccc(N=Nc2ccc3c(S(=O)(=O)O)cccc3c2O)c2ccccc12.[Na+] [Chromotrope F4B]	1.8	–	–	YES
125 µM	201 µM	CCOc1ccc(Nc2ccc(C(=C3C=CC(=[N+](CC)Cc4cccc(S(=O)(=O)[O-])c4)C=C3C)c3ccc(N(CC)Cc4cccc(S(=O)(=O)[O-])c4)cc3C)cc2)cc1.[Na+] [Comassie Brilliant Blue]	1.6	–	–	–
72 µM	146 µM	O=S(=O)([O-])c1cc2cc(S(=O)(=O)O)ccc2c(N=Nc2c(O)cc(S(=O)(=O)[O-])c3ccccc23)c1O.[Na+].[Na+] [Hydroxy Naphthol Blue]	2.0	–	–	YES
64 µM	135 µM	O=S(=O)([O-])c1ccc2c(N=Nc3c(O)cc(S(=O)(=O)[O-])c4ccccc34)c(O)c(S(=O)(=O)[O-])cc2c1.[Na+].[Na+].[Na+] [HydroxyNapthol Blue]	2.1	–	–	YES
315 µM	631 µM	CCN(Cc1cccc(S(=O)(=O)[O-])c1)c1ccc(C(=C2C=CC(=[N+](CC)Cc3cccc(S(=O)(=O)[O-])c3)C=C2)c2ccc(S(=O)(=O)[O-])cc2)cc1.[Na+].[Na+] [Light Green SF Yellowish]	2	–	–	–
176 µM	323 µM	O=S(=O)([O-])c1cc(Cl)cc(N=Nc2ccc3c(S(=O)(=O)[O-])cccc3c2O)c1O.[Na+].[Na+] [Mordant Blue 9]	1.8	–	–	–
27 µM	43 µM	O=S(=O)([O-])c1cc(S(=O)(=O)[O-])c2c(N=Nc3ccc(S(=O)(=O)[O-])c4ccccc34)c(O)ccc2c1.[Na+].[Na+].[Na+] [New Coccine]	1.6	–	–	YES
293 µM	419 µM	Cc1nc(N=Nc2ccc(S(=O)(=O)O)cc2S(=O)(=O)O)c(COP(=O)(O)O)c(C=O)c1O [PPADS]	1.4	–	–	–
70 µM	74 µM	Nc1cc(S(=O)(=O)[O-])cc2cc(S(=O)(=O)[O-])c(N=Nc3cc([N+](=O)[O-])ccc3O)c(O)c12.[Na+].[Na+] [Palatine Chrome Green]	1.1	–	–	–
111 µM	146 µM	Cc1cc(C)c(N=Nc2c(O)c(S(=O)(=O)[O-])cc3cc(S(=O)(=O)[O-])ccc23)cc1C.[Na+].[Na+] [Ponceau 3R]	1.3	–	–	–
107 µM	124 µM	O=S(=O)([O-])c1cc(S(=O)(=O)[O-])c2c(N=Nc3ccc(S(=O)(=O)[O-])c4ccccc34)c(O)c(S(=O)(=O)[O-])cc2c1.[Na+].[Na+].[Na+].[Na+] [Ponceau 6R]	1.2	–	–	–
54.1 µM	208 µM	Cc1cc(C)c(S(=O)(=O)[O-])cc1N=Nc1cc(S(=O)(=O)[O-])c2ccccc2c1O.[Na+].[Na+] [Ponceau SX]	3.8	–	–	YES
15 µM	38 µM	Cc1ccc(N=Nc2c(O)c(S(=O)(=O)[O-])cc3cc(S(=O)(=O)[O-])ccc23)c(C)c1.[Na+].[Na+] [Ponceau Xylidine]	2.6	–	–	YES
24 µM	53 µM	COc1ccccc1N=Nc1c(S(=O)(=O)[O-])cc2cc(S(=O)(=O)[O-])cc(NC(C)=O)c2c1O.[Na+].[Na+] [Pontacyl Carmine 2B]	2.2	–	–	YES
57 µM	77 µM	O=S(=O)([O-])c1cc(Nc2nc(Cl)nc(Cl)n2)c2c(O)c(N=Nc3ccccc3)c(S(=O)(=O)[O-])cc2c1.[Na+].[Na+] [Procion Red Mx - 5B]	1.4	–	–	–

Further lines, the compound ahead of its results:

SMILES	IC50 [1]	IC50 [2]	SR	IC50 (read-out: IC50-S)	IC50 (read-out: IC50-p)	Hit
O=S(=O)(O)c1ccc2c(N=Nc3c(O)c(S(=O)(=O)O)cc4cc(S(=O)(=O)O)ccc34)c(O)c(S(=O)(=O)O)cc2c1 [2-2-dihydroxy-1-1-azo-naphthalene-3-3-6]	111 µM	213 µM	1.9	–	–	–
Cn1c(=O)c2[nH]c(-c3ccc(S(=O)(=O)O)cc3)nc2n(C)c1=O.O [8-(p-Sulfophenyl)theophylline hydrate]	–	–	2.5	140 µM	346 µM	–
CCN(CC)c1ccc(C(=C2C=CC(=[N+](CC)CC)C=C2)c2ccc(S(=O)(=O)[O-])cc2S(=O)(=O)[O-])cc1.[Na+] [Acid Blue 1]	194 µM	318 µM	1.6	–	–	–
Nc1c(N=Nc2cccc([N+](=O)[O-])c2)c(S(=O)(=O)[O-])cc2cc(S(=O)(=O)[O-])c(N=Nc3ccccc3)c(O)c12.[Na+].[Na+] [Acid Blue 29]	122 µM	212 µM	1.7	–	–	–
O=S(=O)(O)c1ccc2c(O)c(N=Nc3cccc4ccccc34)c(S(=O)(=O)O)cc2c1.[Na+] [Acid Dye (Azo Red)]	21 µM	23 µM	1	–	–	–
CCN(Cc1cccc(S(=O)(=O)[O-])c1)c1ccc(C(=C2C=CC(=[N+](CC)Cc3cccc(S(=O)(=O)[O-])c3)C=C2)c2ccccc2)cc1.[Na+] [Acid Green 3]	666 µM	492 µM	0.74	–	–	–
O=S(=O)([O-])c1ccc(N=Nc2c(O)ccc3ccccc23)cc1.[Na+] [Acid Orange 7]	400 µM	114 µM	0.29	–	–	–
CC(=O)Nc1cc(S(=O)(=O)[O-])cc2cc(S(=O)(=O)[O-])c(N=Nc3ccccc3)c(O)c12.[Na+].[Na+] [Acid Red 1]	13 µM	33 µM	2.6	–	–	YES
Cc1ccc(N=Nc2c(O)c(S(=O)(=O)[O-])cc3cc(S(=O)(=O)[O-])ccc23)c(C)c1.[Na+].[Na+] [Acid Red 26]	604 µM	154 µM	0.26	–	–	–
CC(=O)Nc1ccc(N=Nc2c(N)ccc3cc(S(=O)(=O)O)cc(O)c23)c(S(=O)(=O)O)c1.N.N [Acid Red 37]	51 µM	85 µM	1.7	–	–	YES
O=[N+]([O-])c1ccc(N=Nc2c(S(=O)(=O)[O-])cc3cc(S(=O)(=O)[O-])cc(O)c3c2O)cc1.[Na+].[Na+] [Acid Red 60 Chromotrope 2B]	22 µM	26 µM	1.2	–	–	–
CCN(Cc1cccc(S(=O)(=O)[O-])c1)c1ccc(C(=C2C=CC(=[N+](C)C)C=C2)c2ccc(N(CC)Cc3cccc(S(=O)(=O)O)c3)cc2)cc1.[Na] [Acid Violet 49]	86 µM	64 µM	0.75	–	–	–
CCN(Cc1cccc(S(=O)(=O)[O-])c1)c1ccc(C(=C2C=CC(=[N+](CC)Cc3cccc(S(=O)(=O)[O-])c3)C=C2)c2ccccc2Cl)cc1.[Na+] [Alizarin Green]	621 µM	414 µM	0.67	–	–	–
O=S(=O)([O-])c1ccc2c(N=Nc3ccc(S(=O)(=O)[O-])c4ccccc34)c(O)c(S(=O)(=O)[O-])cc2c1.[Na+].[Na+].[Na+] [Amaranthe]	26 µM	33 µM	1.3	–	–	–
O=S(=O)(O)c1cc2cc(S(=O)(=O)O)c(N=Nc3ccccc3[As](=O)(O)O)c(O)c2c(O)c1N=Nc1ccccc1[As](=O)(O)O [Arsenazo III]	34 µM	47 µM	1.4	–	–	–
O=S(=O)([O-])c1cc(O)c2c(N=Nc3c(S(=O)(=O)[O-])cc4cc(S(=O)(=O)[O-])cc(O)c4c3O)cc(S(=O)(=O)[O-])cc2c1.[Na+].[Na+].[Na+].[Na+] [Beryllon II]	33 µM	94 µM	3	–	–	YES
O=S(=O)([O-])c1cc(S(=O)(=O)[O-])c2c(N=Nc3ccc(N=Nc4ccccc4)cc3)c(O)ccc2c1.[Na+].[Na+] [Brilliant Crocein Moo]	47 µM	82 µM	1.8	–	–	YES
O=S(=O)(O)c1cc(O)c2c(N=Nc3c(S(=O)(=O)O)cc4cc(S(=O)(=O)O)cc(N=Nc5c(S(=O)(=O)O)cc6cc(S(=O)(=O)O)cc(O)c6c5O)c4c3O)cc(S(=O)(=O)O)cc2c1 [Calichrome]	375 µM	464 µM	1.2	–	–	–
